Laboratory results: PubChem BioAssay AID1919001 (Molecular Pharmacology Branch, DTP, NCI, 2023)
pIC50: −log10 of the molar value.

System: 699152-130-R-J1-PDC complex spheroid growth
Test: Anticancer human tumor 699152-130-R-J1-PDC patient-derived pancreatic carcinoma cell line growth inhibition [AhR]
Settings: for viability, T/C: stronger effect = lower value
Outline: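 Complex tumor spheroids co-cultured with HUVEC and human MSC stroma; AhR antagonists tested in combination with standard-of-care and investigational agents. Top concentration at or near clinical Cmax (else 10 microM), half-log dilutions; growth expressed as percent test/control.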

[1] = curve of first compound, second compound 0.1 µM
[2] = curve of first compound, second compound 0.316 µM
[3] = curve of first compound, second compound 1 µM
[4] = curve of first compound, second compound 3.16 µM
[5] = curve of first compound, second compound 10 µM
[6] = second compound 0.1 µM, first compound 0.0316 µM
[7] = second compound 0.1 µM, first compound 0.1 µM
[8] = second compound 0.1 µM, first compound 0.316 µM
[9] = second compound 0.1 µM, first compound 1 µM
[10] = second compound 0.1 µM, first compound 3.16 µM
[11] = second compound 0.1 µM, first compound 10 µM
[12] = second compound 0.316 µM, first compound 0.0316 µM
[13] = second compound 0.316 µM, first compound 0.1 µM
[14] = second compound 0.316 µM, first compound 0.316 µM
[15] = second compound 0.316 µM, first compound 1 µM
[16] = second compound 0.316 µM, first compound 3.16 µM
[17] = second compound 0.316 µM, first compound 10 µM
[18] = second compound 1 µM, first compound 0.0316 µM
[19] = second compound 1 µM, first compound 0.1 µM
[20] = second compound 1 µM, first compound 0.316 µM
[21] = second compound 1 µM, first compound 1 µM
[22] = second compound 1 µM, first compound 3.16 µM
[23] = second compound 1 µM, first compound 10 µM
[24] = second compound 3.16 µM, first compound 0.0316 µM
[25] = second compound 3.16 µM, first compound 0.1 µM
[26] = second compound 3.16 µM, first compound 0.316 µM
[27] = second compound 3.16 µM, first compound 1 µM
[28] = second compound 3.16 µM, first compound 3.16 µM
[29] = second compound 3.16 µM, first compound 10 µM
[30] = second compound 10 µM, first compound 0.0316 µM
[31] = second compound 10 µM, first compound 0.1 µM
[32] = second compound 10 µM, first compound 0.316 µM
[33] = second compound 10 µM, first compound 1 µM
[34] = second compound 10 µM, first compound 3.16 µM
[35] = second compound 10 µM, first compound 10 µM
[36] = second compound 0.1 µM, first compound 0.00949 µM
[37] = second compound 0.1 µM, first compound 0.03 µM
[38] = second compound 0.1 µM, first compound 0.0949 µM
[39] = second compound 0.1 µM, first compound 0.3 µM
[40] = second compound 0.1 µM, first compound 0.949 µM
[41] = second compound 0.1 µM, first compound 3 µM
[42] = second compound 0.316 µM, first compound 0.00949 µM
[43] = second compound 0.316 µM, first compound 0.03 µM
[44] = second compound 0.316 µM, first compound 0.0949 µM
[45] = second compound 0.316 µM, first compound 0.3 µM
[46] = second compound 0.316 µM, first compound 0.949 µM
[47] = second compound 0.316 µM, first compound 3 µM
[48] = second compound 1 µM, first compound 0.00949 µM
[49] = second compound 1 µM, first compound 0.03 µM
[50] = second compound 1 µM, first compound 0.0949 µM
[51] = second compound 1 µM, first compound 0.3 µM
[52] = second compound 1 µM, first compound 0.949 µM
[53] = second compound 1 µM, first compound 3 µM
[54] = second compound 3.16 µM, first compound 0.00949 µM
[55] = second compound 3.16 µM, first compound 0.03 µM
[56] = second compound 3.16 µM, first compound 0.0949 µM
[57] = second compound 3.16 µM, first compound 0.3 µM
[58] = second compound 3.16 µM, first compound 0.949 µM
[59] = second compound 3.16 µM, first compound 3 µM
[60] = second compound 10 µM, first compound 0.00949 µM
[61] = second compound 10 µM, first compound 0.03 µM
[62] = second compound 10 µM, first compound 0.0949 µM
[63] = second compound 10 µM, first compound 0.3 µM
[64] = second compound 10 µM, first compound 0.949 µM
[65] = second compound 10 µM, first compound 3 µM
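Note: compound exposure lasted 7 days after spheroids had grown for 3 days.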

CC1(C)CCC(CN2CCN(c3ccc(C(=O)NS(=O)(=O)c4ccc(NCC5CCOCC5)c([N+](=O)[O-])c4)c(Oc4cnc5[nH]ccc5c4)c3)CC2)=C(c2ccc(Cl)cc2)C1 + Cc1cncc(-c2nc(NCCc3c[nH]c4ccccc34)c3ncn(C(C)C)c3n2)c1
pIC50 [1]: < 5.00 | pIC50 [2]: < 5.00 | pIC50 [3]: < 5.00 | pIC50 [4]: < 5.00 | pIC50 [5]: > 7.50 | viability, T/C [6]: 101% | viability, T/C [7]: 111% | viability, T/C [8]: 124% | viability, T/C [9]: 106% | viability, T/C [10]: 109% | viability, T/C [11]: 97.4% | viability, T/C [12]: 114% | viability, T/C [13]: 110% | viability, T/C [14]: 105% | viability, T/C [15]: 107% | viability, T/C [16]: 114% | viability, T/C [17]: 121% | viability, T/C [18]: 127% | viability, T/C [19]: 134% | viability, T/C [20]: 127% | viability, T/C [21]: 117% | viability, T/C [22]: 120% | viability, T/C [23]: 128% | viability, T/C [24]: 121% | viability, T/C [25]: 127% | viability, T/C [26]: 130% | viability, T/C [27]: 123% | viability, T/C [28]: 125% | viability, T/C [29]: 128% | viability, T/C [30]: 19.8% | viability, T/C [31]: 18.4% | viability, T/C [32]: 23.2% | viability, T/C [33]: 23.7% | viability, T/C [34]: 27.9% | viability, T/C [35]: 22.8%

O=C(C=Cn1cnc(-c2cc(C(F)(F)F)cc(C(F)(F)F)c2)n1)NNc1cnccn1 + Cc1cncc(-c2nc(NCCc3c[nH]c4ccccc34)c3ncn(C(C)C)c3n2)c1
pIC50 [1]: < 5.52 | pIC50 [2]: < 5.52 | pIC50 [3]: < 5.52 | pIC50 [4]: < 5.52 | pIC50 [5]: > 8.02 | viability, T/C [36]: 97.5% | viability, T/C [37]: 97.4% | viability, T/C [38]: 86.4% | viability, T/C [39]: 81.4% | viability, T/C [40]: 69.4% | viability, T/C [41]: 67.8% | viability, T/C [42]: 83.2% | viability, T/C [43]: 92% | viability, T/C [44]: 89.2% | viability, T/C [45]: 76.3% | viability, T/C [46]: 76.8% | viability, T/C [47]: 74.2% | viability, T/C [48]: 102% | viability, T/C [49]: 111% | viability, T/C [50]: 92.9% | viability, T/C [51]: 87.1% | viability, T/C [52]: 79.7% | viability, T/C [53]: 72.2% | viability, T/C [54]: 118% | viability, T/C [55]: 113% | viability, T/C [56]: 93.9% | viability, T/C [57]: 97.2% | viability, T/C [58]: 76.2% | viability, T/C [59]: 70.5% | viability, T/C [60]: 20.1% | viability, T/C [61]: 22.6% | viability, T/C [62]: 25.2% | viability, T/C [63]: 26.4% | viability, T/C [64]: 35% | viability, T/C [65]: 32.9%

O=C(C=Cc1cccc(S(=O)(=O)Nc2ccccc2)c1)NO + Cc1cncc(-c2nc(NCCc3c[nH]c4ccccc34)c3ncn(C(C)C)c3n2)c1
pIC50 [1]: < 5.00 | pIC50 [2]: < 5.00 | pIC50 [3]: < 5.00 | pIC50 [4]: < 5.00 | pIC50 [5]: > 7.50 | viability, T/C [6]: 110% | viability, T/C [7]: 96.5% | viability, T/C [8]: 102% | viability, T/C [9]: 117% | viability, T/C [10]: 98.8% | viability, T/C [11]: 91.3% | viability, T/C [12]: 114% | viability, T/C [13]: 96% | viability, T/C [14]: 101% | viability, T/C [15]: 112% | viability, T/C [16]: 101% | viability, T/C [17]: 82.8% | viability, T/C [18]: 112% | viability, T/C [19]: 120% | viability, T/C [20]: 121% | viability, T/C [21]: 109% | viability, T/C [22]: 96.6% | viability, T/C [23]: 87.5% | viability, T/C [24]: 108% | viability, T/C [25]: 105% | viability, T/C [26]: 109% | viability, T/C [27]: 86.4% | viability, T/C [28]: 81.8% | viability, T/C [29]: 79% | viability, T/C [30]: 27.2% | viability, T/C [31]: 20.6% | viability, T/C [32]: 21.4% | viability, T/C [33]: 19.4% | viability, T/C [34]: 17% | viability, T/C [35]: 10.1%

CCN(c1cc(-c2ccc(CN3CCOCC3)cc2)cc(C(=O)NCc2c(C)cc(C)[nH]c2=O)c1C)C1CCOCC1 + CC(CO)NC(=O)c1cc(-c2ccc(Cl)cc2)nn(-c2cnn(C)c2)c1=O
pIC50 [1]: < 5.52 | pIC50 [2]: < 5.52 | pIC50 [3]: < 5.52 | pIC50 [4]: < 5.52 | pIC50 [5]: < 5.52 | viability, T/C [36]: 97.8% | viability, T/C [37]: 105% | viability, T/C [38]: 99.2% | viability, T/C [39]: 96.2% | viability, T/C [40]: 100% | viability, T/C [41]: 102% | viability, T/C [42]: 107% | viability, T/C [43]: 99.4% | viability, T/C [44]: 96.6% | viability, T/C [45]: 94.5% | viability, T/C [46]: 94.6% | viability, T/C [47]: 99.4% | viability, T/C [48]: 105% | viability, T/C [49]: 106% | viability, T/C [50]: 108% | viability, T/C [51]: 97.3% | viability, T/C [52]: 99.4% | viability, T/C [53]: 111% | viability, T/C [54]: 97.1% | viability, T/C [55]: 89.1% | viability, T/C [56]: 104% | viability, T/C [57]: 91.2% | viability, T/C [58]: 83.6% | viability, T/C [59]: 95.1% | viability, T/C [60]: 93.9% | viability, T/C [61]: 92.2% | viability, T/C [62]: 95.1% | viability, T/C [63]: 85% | viability, T/C [64]: 86.5% | viability, T/C [65]: 87.5%

CC(CO)NC(=O)c1cc(-c2ccc(Cl)cc2)nn(-c2cnn(C)c2)c1=O (configuration not stated)
viability, T/C (compound 0.1 µM): 92.1% [middle of 21 runs] | pIC50 (compound alone, run of 07/12/2022): < 5.00
